Laboratory results: PubChem BioAssay (NCI)
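Protocol summary: plate cells (96-well), add compound at 5 concentrations, incubate 48 h, interpolate endpoints linearly. TGI marks complete inhibition of growth.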

Legend:
Assay in all cases: growth of human tumour cells (NCI), 48 h
[1] = system: 786-0 renal
[2] = system: A498 renal
[3] = system: A549 NSCLC
[4] = system: ACHN renal
[5] = system: BT-549 breast
[6] = system: CAKI-1 renal
[7] = system: CCRF-CEM leukemia
[8] = system: COLO 205 colon
[9] = system: DU-145 prostate
[10] = system: EKVX NSCLC
[11] = system: HCC-2998 colon
[12] = system: HCT-116 colon
[13] = system: HCT-15 colon
[14] = system: HL-60(TB) leukemia
[15] = system: HOP-62 NSCLC
[16] = system: HOP-92 NSCLC
[17] = system: HS 578T breast
[18] = system: HT29 colon
[19] = system: IGROV1 ovarian
[20] = system: K-562 leukemia
[21] = system: KM12 colon
[22] = system: LOX IMVI melanoma
[23] = system: M14 melanoma
[24] = system: MALME-3M melanoma
[25] = system: MCF7 breast
[26] = system: MDA-MB-231 breast
[27] = system: MDA-MB-435
[28] = system: MDA-N
[29] = system: MOLT-4 leukemia
[30] = system: NCI-H226 lung
[31] = system: NCI-H23 lung
[32] = system: NCI-H460 lung
[33] = system: NCI-H522 lung
[34] = system: NCI/ADR-RES ovarian
[35] = system: OVCAR-3 ovarian
[36] = system: OVCAR-4 ovarian
[37] = system: OVCAR-5 ovarian
[38] = system: OVCAR-8 ovarian
[39] = system: PC-3 prostate
[40] = system: RPMI-8226 leukemia
[41] = system: RXF 393 renal
[42] = system: SF-268 CNS
[43] = system: SF-295 CNS
[44] = system: SF-539 CNS
[45] = system: SK-MEL-2 melanoma
[46] = system: SK-MEL-28 melanoma
[47] = system: SK-MEL-5 melanoma
[48] = system: SK-OV-3 ovarian
[49] = system: SN12C renal
[50] = system: SNB-19 CNS
[51] = system: SNB-75 CNS
[52] = system: SR leukemia
[53] = system: SW-620 colon
[54] = system: T-47D breast
[55] = system: TK-10 renal
[56] = system: U251 CNS
[57] = system: UACC-257 melanoma
[58] = system: UACC-62 melanoma
[59] = system: UO-31 renal

With COc1cc(Br)cc2nc(-c3cccs3)oc12 the TGI [1] was greater than 100 µM, the TGI [2] was greater than 100 µM and the TGI [3] was greater than 100 µM. The TGI [4] was greater than 100 µM, the TGI [5] was greater than 100 µM and the TGI [6] was greater than 100 µM. The TGI [7] was greater than 100 µM, the TGI [8] was greater than 100 µM and the TGI [9] was greater than 100 µM. It also gave a TGI [10] greater than 100 µM, a TGI [11] greater than 100 µM and a TGI [12] greater than 100 µM. For the same compound, the TGI [13] was greater than 100 µM, the TGI [14] was greater than 100 µM and the TGI [15] was greater than 92.1 µM. For the same compound, the TGI [16] was greater than 100 µM, the TGI [17] was greater than 68 µM and the TGI [18] was greater than 100 µM. For the same compound, the TGI [19] was greater than 100 µM, the TGI [20] was greater than 100 µM and the TGI [21] was greater than 100 µM. It also gave a TGI [22] greater than 100 µM, a TGI [23] greater than 100 µM and a TGI [24] greater than 100 µM. The TGI [25] was greater than 100 µM, the TGI [26] was greater than 100 µM and the TGI [27] was greater than 100 µM. The TGI [28] was greater than 100 µM, the TGI [29] was greater than 100 µM and the TGI [30] was greater than 100 µM. The TGI [31] was greater than 100 µM, the TGI [32] was greater than 100 µM and the TGI [33] was greater than 100 µM. It also gave a TGI [34] greater than 100 µM, a TGI [35] greater than 100 µM and a TGI [36] greater than 100 µM. It also gave a TGI [37] greater than 100 µM, a TGI [38] greater than 100 µM and a TGI [39] greater than 100 µM. It also gave a TGI [40] greater than 100 µM, a TGI [41] greater than 100 µM and a TGI [42] greater than 100 µM. It also gave a TGI [43] greater than 100 µM, a TGI [44] greater than 100 µM and a TGI [45] greater than 100 µM. It also gave a TGI [46] greater than 100 µM, a TGI [47] greater than 100 µM and a TGI [48] greater than 100 µM. It also gave a TGI [49] greater than 100 µM, a TGI [50] greater than 100 µM and a TGI [51] greater than 85.9 µM. The TGI [52] was greater than 100 µM, the TGI [53] was greater than 100 µM and the TGI [54] was greater than 100 µM. For the same compound, the TGI [55] was greater than 77.6 µM, the TGI [56] was greater than 100 µM and the TGI [57] was greater than 100 µM. For the same compound, the TGI [58] was greater than 100 µM and the TGI [59] was greater than 100 µM.
CCCN(CCC)c1cc2c(cc1F)c(=O)c(C(=O)O)cn2-c1ccc(N2CCN(C)CC2)cn1 was tested, and the TGI [1] was 36.8 µM, the TGI [2] was 49.2 µM and the TGI [3] was 34 µM. The TGI [5] was 25 µM, the TGI [6] was 32.5 µM and the TGI [7] was 36.7 µM. For the same compound, the TGI [8] was 27.1 µM, the TGI [9] was 45.3 µM and the TGI [10] was 34.2 µM. For the same compound, the TGI [12] was 28.9 µM, the TGI [13] was greater than 100 µM and the TGI [14] was 26.1 µM. The TGI [15] was 31.4 µM, the TGI [16] was 28.7 µM and the TGI [17] was 35.1 µM. It also gave a TGI [18] of 30.5 µM, a TGI [19] of 27.6 µM and a TGI [20] of 55.1 µM. The TGI [21] was 30.3 µM, the TGI [22] was 9.65 µM and the TGI [23] was 32.1 µM. The TGI [24] was 27.9 µM, the TGI [25] was 53.3 µM and the TGI [26] was 27.1 µM. It also gave a TGI [27] of 38.9 µM, a TGI [28] of 40.1 µM and a TGI [29] of 43.4 µM. It also gave a TGI [30] of 31.1 µM, a TGI [31] of 35 µM and a TGI [32] of 36.5 µM. It also gave a TGI [33] of 24.9 µM, a TGI [34] of 35.9 µM and a TGI [35] of 29.7 µM. The TGI [36] was 43.3 µM, the TGI [37] was 41.3 µM and the TGI [38] was 27.3 µM. For the same compound, the TGI [39] was 39.3 µM, the TGI [40] was 40.4 µM and the TGI [41] was 33.1 µM. For the same compound, the TGI [42] was 30.7 µM, the TGI [43] was 33.6 µM and the TGI [44] was 32.6 µM. The TGI [46] was 36.5 µM, the TGI [48] was 28.5 µM and the TGI [49] was 46 µM. The TGI [50] was 31.5 µM, the TGI [51] was 28.3 µM and the TGI [52] was 35.9 µM. The TGI [53] was 48.2 µM, the TGI [54] was 38.8 µM and the TGI [55] was 23.1 µM. The TGI [56] was greater than 100 µM, the TGI [57] was 36.4 µM and the TGI [58] was 39.6 µM. For the same compound, the TGI [59] was 32.2 µM.
Compound CCOC(=O)NC has a TGI [1] greater than 100 µM, a TGI [2] greater than 100 µM and a TGI [3] greater than 100 µM. For the same compound, the TGI [4] was greater than 100 µM, the TGI [5] was greater than 100 µM and the TGI [6] was greater than 100 µM. The TGI [7] was greater than 100 µM, the TGI [8] was greater than 100 µM and the TGI [9] was greater than 100 µM. It also gave a TGI [10] greater than 100 µM, a TGI [11] greater than 100 µM and a TGI [12] greater than 100 µM. For the same compound, the TGI [13] was greater than 100 µM, the TGI [14] was greater than 100 µM and the TGI [15] was greater than 100 µM. It also gave a TGI [16] greater than 100 µM, a TGI [17] greater than 100 µM and a TGI [18] greater than 100 µM. For the same compound, the TGI [19] was greater than 100 µM, the TGI [20] was greater than 100 µM and the TGI [21] was greater than 100 µM. For the same compound, the TGI [22] was greater than 100 µM, the TGI [23] was greater than 100 µM and the TGI [24] was greater than 100 µM. For the same compound, the TGI [25] was greater than 100 µM, the TGI [26] was greater than 100 µM and the TGI [27] was greater than 100 µM. The TGI [28] was greater than 100 µM, the TGI [31] was greater than 100 µM and the TGI [32] was greater than 100 µM. The TGI [34] was greater than 100 µM, the TGI [35] was greater than 100 µM and the TGI [36] was greater than 100 µM. The TGI [37] was greater than 100 µM, the TGI [39] was greater than 100 µM and the TGI [40] was greater than 100 µM. It also gave a TGI [41] greater than 100 µM, a TGI [42] greater than 100 µM and a TGI [43] greater than 100 µM. It also gave a TGI [44] greater than 100 µM, a TGI [45] greater than 100 µM and a TGI [46] greater than 100 µM. The TGI [47] was greater than 100 µM, the TGI [48] was greater than 100 µM and the TGI [49] was greater than 100 µM. It also gave a TGI [50] greater than 100 µM, a TGI [51] greater than 100 µM and a TGI [52] greater than 100 µM. For the same compound, the TGI [53] was greater than 100 µM, the TGI [54] was greater than 100 µM and the TGI [55] was greater than 100 µM. The TGI [56] was greater than 100 µM, the TGI [57] was greater than 100 µM and the TGI [58] was greater than 100 µM. For the same compound, the TGI [59] was greater than 100 µM.
CCO/C=N/C1=C(C#N)C(c2ccc(Cl)cc2)c2c(-c3ccccc3)nn(-c3ccccc3)c2O1 (configuration not stated) was tested, and the TGI [1] was 32.2 µM, the TGI [2] was 19.9 µM and the TGI [3] was 21.5 µM. The TGI [4] was 29.5 µM, the TGI [5] was 31.5 µM and the TGI [6] was 36 µM. The TGI [7] was greater than 100 µM, the TGI [8] was greater than 100 µM and the TGI [9] was greater than 31.6 µM. It also gave a TGI [10] greater than 31.6 µM, a TGI [11] greater than 38.9 µM and a TGI [12] greater than 47.9 µM. For the same compound, the TGI [13] was greater than 52.5 µM, the TGI [14] was greater than 100 µM and the TGI [15] was 86.5 µM. The TGI [16] was 29.1 µM, the TGI [17] was greater than 28.1 µM and the TGI [18] was 64.9 µM. The TGI [19] was 45.2 µM, the TGI [20] was greater than 100 µM and the TGI [21] was 18.7 µM. The TGI [22] was 31 µM, the TGI [23] was 20.3 µM and the TGI [24] was 30 µM. The TGI [25] was 25 µM, the TGI [26] was greater than 67 µM and the TGI [27] was 35.8 µM. For the same compound, the TGI [28] was 45.8 µM, the TGI [29] was greater than 100 µM and the TGI [30] was 46.9 µM. It also gave a TGI [31] of 24.5 µM, a TGI [32] of 46 µM and a TGI [33] of 18.2 µM. The TGI [34] was greater than 85.4 µM, the TGI [35] was greater than 45.2 µM and the TGI [36] was greater than 64.8 µM. The TGI [37] was greater than 70.1 µM, the TGI [38] was greater than 80.8 µM and the TGI [39] was 22.7 µM. The TGI [40] was greater than 100 µM, the TGI [41] was 28.6 µM and the TGI [42] was 29.9 µM. The TGI [43] was 32.2 µM, the TGI [44] was greater than 26.2 µM and the TGI [45] was 34.8 µM. For the same compound, the TGI [46] was 39.5 µM, the TGI [48] was 48.2 µM and the TGI [49] was greater than 100 µM. It also gave a TGI [50] of 24.7 µM, a TGI [51] of 29.1 µM and a TGI [52] greater than 100 µM. For the same compound, the TGI [53] was greater than 66.5 µM, the TGI [54] was greater than 100 µM and the TGI [55] was 14.2 µM. It also gave a TGI [56] of 16.8 µM, a TGI [57] of 35.9 µM and a TGI [58] of 33.5 µM. For the same compound, the TGI [59] was 31.9 µM.
